Tested on: normal, non-HF ovine model
Test: Change in right and left ventricle contractility after injection, with max(dP/dt) pressure as surrogate and heartbeat-by-heartbeat RV/LV correlation
Type: in vivo
Settings: max(dP/dt) used as surrogate for contractility
Source text: The correlation was a heartbeat-by-heartbeat analysis. Pressure measurements, taken by a Millar catheter comprising a MEMS pressure sensor, in units of max(dP/dt) was used as a surrogate for contractility. The first change, a dobutamine injection, provided a very high contractility increase greater than 500%. The average correlation between right ventricle contractility and left ventricle contractility was very good at 0.91, where 1.00 is a perfect correlation. Accordingly, if a subject is given a dobutamine injection, measuring changes to right ventricle contractility can provide accurate information about changes to left ventricle contractility. The first change was repeated three times. The second change, calcium injection at 5 mL, provided a contractility increase of about 20%. […] The average correlation between right ventricle contractility and left ventricle contractility using a Millar (MEMS) sensor on a catheter was very good at 0.91. The average correlation between right ventricle contractility and left ventricle contractility using a fluid-filled lumen of a Swan-Ganz catheter in communication with an external pressure sensor was also very good at 0.87. Accordingly, under certain circumstances such as measurement of an animal (normal, non-HF ovine model) model, if a subject is given a calcium injection, measuring changes to right ventricle contractility with a MEMS sensor or a fluid filled lumen can provide accurate information about changes to left ventricle contractility.

CC(CCc1ccc(O)cc1)NCCc1ccc(O)c(O)c1 (stereo not shown) [Dobutamine Injection, dobutamine]
Contractility % Increase: >500% | Contractility % Increase (listed as dobutamine injection): greater than 500%

calcium [Calcium Injection]
Contractility % Increase: ~20% | Contractility % Increase (listed as calcium injection): about 20%
